Test results taken from ChEMBL document CHEMBL4421724, “2-benzoylaminobenzamide derivatives as bcl-3 inhibitors” (2016).
Calls of active or inactive are those of the source. The calls are words filed in the database; no cut-off is given here.

Legend:
[1] = test system: HEK293; experiment: Toxicity against HEK293 cells assessed as reduction in cell viability at 10 uM incubated for 24 hrs by cell titre blue viability assay relative to control; type: cell-based; conditions: human, hek293, 24 h
[2] = test system: MDA-MB-231; experiment: Toxicity against human MDA-MB-231 cells assessed as reduction in cell viability at 10 uM incubated for 24 hrs by cell titre blue viability assay relative to control; type: cell-based; conditions: mda-mb-231, 24 h
[3] = target: T1, B-cell lymphoma 3 protein (Homo sapiens) (UniProt P20749); experiment: Inhibition of Bcl-3 in human MDA-MB-231 cells assessed as reduction in NF-kappaB signalling at 1 uM incubated for 24 hrs by NF-kappaB promoter dependent luciferase reporter gene assay; type: cell-based
T1 sequence (whole entry): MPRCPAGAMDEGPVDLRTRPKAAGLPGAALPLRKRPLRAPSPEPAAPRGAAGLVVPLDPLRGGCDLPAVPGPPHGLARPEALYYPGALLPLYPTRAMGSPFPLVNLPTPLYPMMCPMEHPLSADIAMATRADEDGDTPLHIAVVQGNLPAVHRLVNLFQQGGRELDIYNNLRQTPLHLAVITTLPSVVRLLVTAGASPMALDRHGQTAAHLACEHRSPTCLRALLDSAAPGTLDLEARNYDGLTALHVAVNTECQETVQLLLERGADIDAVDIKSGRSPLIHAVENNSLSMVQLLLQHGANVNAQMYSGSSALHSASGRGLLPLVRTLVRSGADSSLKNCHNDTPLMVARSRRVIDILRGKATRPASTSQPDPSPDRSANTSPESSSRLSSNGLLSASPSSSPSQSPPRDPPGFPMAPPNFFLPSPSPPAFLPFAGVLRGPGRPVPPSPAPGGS

[4] = Solubility in water assessed per 100 ml; type: physicochemical; conditions: buffer
[5] = Solubility in methanol assessed per 100 ml; type: physicochemical
[6] = Solubility in ethanol assessed per 100 ml; type: physicochemical
[7] = Solubility in DMSO assessed per 100 ml; type: physicochemical
[8] = Solubility in ethyl acetate assessed per 100 ml; type: physicochemical
[9] = Solubility in dichloromethane assessed per 100 ml; type: physicochemical
[10] = Solubility in diethyl ether assessed per 100 ml; type: physicochemical
[11] = test system: MDA-MB-231; experiment: Inhibition of cell migration of human MDA-MB-231 cells overexpressing Bcl-3 assessed as reduction in cell motility incubated for 24 hrs by Boyden chamber assay; type: functional, cell-based; conditions: MDA-MB-231, 24 h
[12] = test system: MDA-MB-231; experiment: Inhibition of cell migration of human MDA-MB-231 cells overexpressing Bcl-3 assessed as cell motility at 10 nM incubated for 24 hrs by Boyden chamber assay relative to control; type: functional; design: scale not given: the % may be the effect or the level left

Row | Compound | Activity [1] | Activity [2] | also measured
1 | O=C(NCCN1CCOCC1)c1ccccc1NC(=O)c1ccccc1[N+](=O)[O-] | > 70% | > 70% | –
2 | O=C(Nc1ccccc1C(=O)NCCCN1CCOCC1)c1ccccc1F | > 70% | > 70% | inhibition [3]: Active
3 | Cc1cccc(C(=O)NCCN2CCOCC2)c1NC(=O)c1ccccc1F | > 70% | > 70% | –
4 | COc1ccc(C(=O)Nc2ccccc2C(=O)NCCN2CCOCC2)cc1OC | > 90% | > 90% | –
5 | NCCNC(=O)c1ccccc1NC(=O)c1ccccc1F | > 70% | > 70% | –
6 | O=C(Nc1ccccc1C(=O)NCCN1CCOCC1)c1ccc([N+](=O)[O-])cc1 | > 70% | > 70% | –
7 | O=C(Nc1ccccc1C(=O)NCCN1CCOCC1)c1ccc(F)cc1F | > 90% | > 90% | –
8 | COc1cccc(C(=O)Nc2ccccc2C(=O)NCCN2CCOCC2)c1 | > 70% | > 70% | –
9 | Cc1ccccc1C(=O)Nc1ccccc1C(=O)NCCN1CCOCC1 | > 70% | > 70% | –
10 | COc1cc(OC)cc(C(=O)Nc2ccccc2C(=O)NCCN2CCOCC2)c1 | > 90% | > 90% | –
11 | COc1cc(C(=O)Nc2ccccc2C(=O)NCCN2CCOCC2)cc(OC)c1OC | > 90% | > 90% | –
12 | O=C(NCCN1CCOCC1)c1ccccc1NC(=O)c1c(F)cccc1F | > 90% | > 90% | –
13 | O=C(Nc1ccccc1C(=O)NCCN1CCOCC1)c1ccc(F)cc1 | > 70% | > 70% | –
14 | O=C(Nc1ccccc1C(=O)NCCN1CCOCC1)c1ccccc1F [listing 1 of 2 here] | > 70% | > 70% | solubility [4]: < 0.01 g; solubility [5]: 0.2 g; solubility [6]: 0.09 g; solubility [7]: 3.71 g; solubility [8]: 0.34 g; solubility [9]: 2.91 g; solubility [10]: 0.09 g
15 | O=C(Nc1cccc(Cl)c1C(=O)NCCN1CCOCC1)c1ccccc1F | > 70% | > 70% | –
16 | O=C(Nc1ccccc1C(=O)NCCN1CCOCC1)c1cc(F)cc(F)c1 | > 90% | > 90% | –
17 | O=C(Nc1ccccc1C(=O)NCN1CCCC1)c1ccccc1F | > 70% | > 70% | IC50 [11]: 3.65 µM
18 | O=C(Nc1ccccc1C(=O)NCCN1CCOCC1)c1ccccc1F [listing 2 of 2 here] | – | – | inhibition [3]: Active
19 | O=C(Nc1ccccc1C(=O)NCCc1ccccn1)c1ccccc1F | > 70% | > 70% | –
20 | O=C(Nc1ccccc1C(=O)NCCN1CCCCC1)c1ccccc1F | > 70% | > 70% | inhibition [3]: Active
21 | COc1ccc(C(=O)Nc2ccccc2C(=O)NCCN2CCOCC2)cc1 | > 70% | > 70% | inhibition [3]: Active; Activity [12]: <50%
22 | O=C(Nc1ccc(I)cc1C(=O)NCCN1CCOCC1)c1ccccc1F | – | – | inhibition [3]: Active
23 | Cl.O=C(Nc1ccccc1C(=O)NCCN1CCOCC1)c1ccccc1F | – | – | solubility [4]: 0.95 g; solubility [5]: 0.59 g; solubility [6]: 0.19 g; solubility [7]: < 0.01 g; solubility [8]: 0.02 g; solubility [9]: 0.9 g; solubility [10]: 0.01 g
24 | COc1cccc(C(=O)NCCN2CCOCC2)c1NC(=O)c1ccccc1F | > 70% | > 70% | –
